Results on two compounds are retold here after patent publication US20080033029A1, “Treating Digestive Tract Conditions” (MAYO FOUNDATION FOR MEDICAL EDUCATION AND RESEARCH, priority 2004, published 2008).

For experiment [1], the system named is ICC (interstitial cells of Cajal). As to the kind of experiment: ICC culture: number of ICC with or without 5HT. The class given is cell-based, mouse. To be noted: 5HT 1 μM added every 12 hours for 24 hours; ICC from 6 day old Balb/C mice; c-kit antibody; untreated 8±0.5; P<0.0004; FIG. 1.
Source text: (§1) Blinded parallel cultures were established (n=2, 6 day old Balb/C mice yielding 6 coverslips). […] ICC were identified using an antibody to c-kit and counted. Mast cells, which were identified by their characteristic size and round shape, were not included in the analysis.
For experiment [2] the test system is unchanged. As to the kind of experiment: Organotypic culture of adult mouse small intestine explants: ICC number. The class given is cell-based. As to conditions: 5HT 1 μM twice daily; explants from 6 month old mice; fixed at day 8; c-Kit staining, confocal 3D. As to the method: Briefly, one cm segments of mouse small intestine were cut, pinned flat mucosa side up, stripped of mucosa and submucosa layers, and placed into fresh, sterile-filtered Kreb's solution with 3 mM antibiotic. Krebs was removed, and DMEM (Dulbecco's Modified Eagle's Media) with 10% FBS (Fetal Bovine Serum) and 1% antibiotic/antimycotic was added to the culture. […] In the control explant, medium was added without 5HT. The tissue was fixed at day 8 and stained using an antibody to c-Kit. […]

Experiment [3] deals with ICC (interstitial cells of Cajal); 5HT2B receptor. As to the kind of experiment: ICC culture: effect of 5HT2B receptor antagonist on the 5HT-induced increase in ICC number.
Source text: as §1

As to `NCCc1c[nH]c2ccc(O)cc12` [5HT, Serotonin], the “number of ICC per HPF” value in experiment [1] is 14±0.4 ICC per HPF. For the same compound, the “number of ICC in explant versus control explant” value in experiment [2] is “greater number of ICC”.
For `Cc1cc(NC(=O)Nc2ccc3c(ccn3C)c2)sn1` [SB204741], the “number of ICC per HPF” value in experiment [3] is 9±0.2 ICC per HPF.
